Test results published in the NIST ThermoML archive (doi:10.1021/je400214b).
Numbers after ± are expanded uncertainties.

Assays:
[1] = Liquid; for mass density: 293.15 K, 101.33 kPa, Vibrating tube method; for vapor or sublimation pressure: Ebulliometric method (Recirculating still)
[2] = refractive index (Na D-line) (dimensionless); conditions: 293.15 K; 101.33 kPa; Liquid; Standard Abbe refractometry

For `O=[N+]([O-])c1ccccc1` [nitrobenzene], the mass density [1] was 1198.8 ± 0.2 kg/m3, the “vapor or sublimation pressure” value ([1]; 483.15 K) was 96.5 ± 9.7 kPa and the refractive index [2] was 1.5529 ± 0.0007.
For `CCO` [ethanol], the mass density [1] was 788.9 ± 0.2 kg/m3, the “vapor or sublimation pressure” value ([1]; 351.15 K) was 96.5 ± 9.7 kPa and the refractive index [2] was 1.361 ± 0.0007.
In the case of `C=CC#N` [acrylonitrile], the mass density [1] is reported as 806 ± 0.2 kg/m3, the “vapor or sublimation pressure” value ([1]; 350.15 K) is reported as 96.5 ± 9.7 kPa and the refractive index [2] is reported as 1.3909 ± 0.0007.
With `CCCCCCCO` [heptan-1-ol] the “vapor or sublimation pressure” value ([1]; 449.15 K) was 96.5 ± 9.7 kPa.
